What all share (assay type): cell-based
One assay addresses T1, human TLR7 (Homo sapiens, UniProt Q9NYK1).
T1 construct: host or cells: HEK-Blue cells
T1 sequence (Q9NYK1 27-1049): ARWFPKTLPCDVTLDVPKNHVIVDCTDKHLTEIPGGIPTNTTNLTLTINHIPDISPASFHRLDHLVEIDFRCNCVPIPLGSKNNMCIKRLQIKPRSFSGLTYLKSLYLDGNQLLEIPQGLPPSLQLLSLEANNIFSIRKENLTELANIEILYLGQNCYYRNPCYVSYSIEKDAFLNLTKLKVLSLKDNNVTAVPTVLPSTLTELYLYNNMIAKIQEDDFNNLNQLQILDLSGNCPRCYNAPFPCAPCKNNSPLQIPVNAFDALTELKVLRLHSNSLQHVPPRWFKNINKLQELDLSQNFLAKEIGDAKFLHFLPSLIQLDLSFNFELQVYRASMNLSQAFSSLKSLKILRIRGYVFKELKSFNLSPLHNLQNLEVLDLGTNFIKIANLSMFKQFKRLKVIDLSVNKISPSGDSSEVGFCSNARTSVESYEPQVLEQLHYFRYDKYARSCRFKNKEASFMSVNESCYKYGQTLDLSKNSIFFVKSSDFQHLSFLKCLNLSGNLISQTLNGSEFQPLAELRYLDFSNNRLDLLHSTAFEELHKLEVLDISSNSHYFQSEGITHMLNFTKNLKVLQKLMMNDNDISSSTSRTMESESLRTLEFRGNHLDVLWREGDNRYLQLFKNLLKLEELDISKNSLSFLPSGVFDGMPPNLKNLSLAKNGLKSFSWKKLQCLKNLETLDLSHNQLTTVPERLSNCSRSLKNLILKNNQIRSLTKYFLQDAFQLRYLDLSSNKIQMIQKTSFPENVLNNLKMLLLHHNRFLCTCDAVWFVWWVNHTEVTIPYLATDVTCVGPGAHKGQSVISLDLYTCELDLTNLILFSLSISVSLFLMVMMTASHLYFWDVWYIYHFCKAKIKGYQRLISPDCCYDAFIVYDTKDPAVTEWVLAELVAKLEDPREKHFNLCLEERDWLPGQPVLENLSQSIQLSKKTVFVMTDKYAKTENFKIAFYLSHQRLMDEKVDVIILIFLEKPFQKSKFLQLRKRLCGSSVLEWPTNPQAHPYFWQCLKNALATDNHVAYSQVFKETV
The assay is described as follows: TLR7 inhibition reporter assay (HEK-Blue cells, SEAP reporter, gardiquimod stimulation). Particulars: HEK-Blue cells overexpressing human TLR7, SEAP reporter, gardiquimod 7.5 μM; read-out: TLR7 IC50. Summed up:
(§1)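 HEK-Blue cells overexpressing human TLR7, TLR8 or TLR9 carry a SEAP reporter driven by NF-κB/AP-1 sites. Compounds (0.05 nM–50 μM) were preincubated 30 min at room temperature, then cells were stimulated with gardiquimod 7.5 μM (TLR7), R848 15.9 μM (TLR8) or ODN2006 5 nM (TLR9) for 22 h at 37 °C.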

In a further assay the target is T2, human TLR8 (Homo sapiens, UniProt Q9NR97).
T2 construct: host or cells: HEK-Blue cells
T2 sequence (Q9NR97 27-1041): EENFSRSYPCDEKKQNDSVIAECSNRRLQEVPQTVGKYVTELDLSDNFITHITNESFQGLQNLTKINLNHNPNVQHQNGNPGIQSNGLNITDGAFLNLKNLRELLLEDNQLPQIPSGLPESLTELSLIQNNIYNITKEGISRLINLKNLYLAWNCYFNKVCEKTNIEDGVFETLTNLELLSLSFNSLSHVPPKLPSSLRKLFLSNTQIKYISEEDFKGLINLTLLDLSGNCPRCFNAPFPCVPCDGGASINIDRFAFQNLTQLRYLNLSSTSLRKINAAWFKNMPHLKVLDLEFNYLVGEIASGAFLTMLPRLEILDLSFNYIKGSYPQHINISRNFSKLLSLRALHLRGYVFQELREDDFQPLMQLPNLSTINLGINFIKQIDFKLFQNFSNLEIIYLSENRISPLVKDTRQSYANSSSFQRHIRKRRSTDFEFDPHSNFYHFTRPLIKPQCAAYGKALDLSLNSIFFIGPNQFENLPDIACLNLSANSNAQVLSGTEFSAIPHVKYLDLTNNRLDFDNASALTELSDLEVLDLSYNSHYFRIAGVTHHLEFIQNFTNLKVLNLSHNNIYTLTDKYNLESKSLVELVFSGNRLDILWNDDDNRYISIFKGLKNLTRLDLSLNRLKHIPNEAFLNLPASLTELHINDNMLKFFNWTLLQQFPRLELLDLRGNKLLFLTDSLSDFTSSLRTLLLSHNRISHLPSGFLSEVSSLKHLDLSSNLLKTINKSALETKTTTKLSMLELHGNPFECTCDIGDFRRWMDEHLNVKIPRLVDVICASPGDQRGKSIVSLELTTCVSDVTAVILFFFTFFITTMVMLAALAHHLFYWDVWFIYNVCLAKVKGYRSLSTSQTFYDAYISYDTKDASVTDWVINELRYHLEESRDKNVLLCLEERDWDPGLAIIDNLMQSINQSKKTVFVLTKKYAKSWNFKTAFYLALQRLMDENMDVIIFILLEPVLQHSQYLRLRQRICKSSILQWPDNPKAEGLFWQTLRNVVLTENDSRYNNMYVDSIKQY
Description: TLR8 inhibition reporter assay (HEK-Blue cells, SEAP reporter, R848 stimulation). Particulars: HEK-Blue cells overexpressing human TLR8, SEAP reporter, R848 15.9 μM; read-out: TLR8 IC50. In outline: as §1
On the technique in general: In a reporter assay the amount or activity of a reporter protein is the signal.

The next assay has as its target T3, human TLR9 (Homo sapiens, UniProt Q9NR96).
T3 construct: host or cells: HEK-Blue cells
T3 sequence (Q9NR96 26-1032): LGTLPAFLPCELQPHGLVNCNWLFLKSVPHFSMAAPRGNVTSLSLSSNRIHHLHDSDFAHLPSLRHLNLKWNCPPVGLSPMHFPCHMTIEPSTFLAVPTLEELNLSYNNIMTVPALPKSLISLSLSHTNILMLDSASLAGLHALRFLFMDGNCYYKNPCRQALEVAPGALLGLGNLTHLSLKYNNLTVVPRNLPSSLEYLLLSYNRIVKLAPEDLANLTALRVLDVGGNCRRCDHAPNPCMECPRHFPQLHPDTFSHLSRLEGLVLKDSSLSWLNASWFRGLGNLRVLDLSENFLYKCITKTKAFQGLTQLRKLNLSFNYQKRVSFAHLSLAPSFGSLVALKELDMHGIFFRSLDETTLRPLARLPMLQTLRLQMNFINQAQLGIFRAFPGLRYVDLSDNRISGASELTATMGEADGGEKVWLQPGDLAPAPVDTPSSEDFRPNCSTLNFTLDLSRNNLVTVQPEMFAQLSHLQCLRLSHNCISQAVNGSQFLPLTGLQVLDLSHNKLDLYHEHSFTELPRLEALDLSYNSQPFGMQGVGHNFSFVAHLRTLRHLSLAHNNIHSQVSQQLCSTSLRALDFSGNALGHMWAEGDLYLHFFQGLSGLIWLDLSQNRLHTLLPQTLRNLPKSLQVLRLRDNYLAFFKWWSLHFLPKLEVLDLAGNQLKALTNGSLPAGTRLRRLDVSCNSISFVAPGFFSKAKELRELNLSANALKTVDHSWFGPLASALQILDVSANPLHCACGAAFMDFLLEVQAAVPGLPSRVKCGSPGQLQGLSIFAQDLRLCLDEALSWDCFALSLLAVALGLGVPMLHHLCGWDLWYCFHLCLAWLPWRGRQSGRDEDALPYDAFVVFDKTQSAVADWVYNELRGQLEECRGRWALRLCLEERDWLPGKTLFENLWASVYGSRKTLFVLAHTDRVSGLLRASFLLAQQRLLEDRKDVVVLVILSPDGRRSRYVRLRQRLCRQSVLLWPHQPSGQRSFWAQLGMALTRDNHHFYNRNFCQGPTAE
Description: TLR9 inhibition reporter assay (HEK-Blue cells, SEAP reporter, ODN2006 stimulation). Particulars: HEK-Blue cells overexpressing human TLR9, SEAP reporter, ODN2006 5 nM. On the procedure:
TLR7/8/9 Inhibition Reporter Assays
HEK-Blue™-cells (Invivogen) overexpressing human TLR7, TLR8 or TLR9 receptors were used for screening inhibitors of these receptors using an inducible SEAP (secreted embryonic alkaline phosphatase) reporter gene under the control of the IFN-β minimal promoter fused to five NF-κB and AP-1-binding sites. Briefly, cells are seeded into Greiner 384 well plates (15000 cells per well for TLR7, 20,000 for TLR8 and 25,000 for TLR9) and then treated with test compounds in DMSO to yield a final dose response concentration range of 0.05 nM-50 μM. After a 30 minute compound pre-treatment at room temperature, the cells are then stimulated with a TLR7 ligand (gardiquimod at a final concentration of 7.5 μM), TLR8 ligand (R848 at a final concentration of 15.9 μM) or TLR9 ligand (ODN2006 at a final concentration of 5 nM) to activate NF-κB and AP-1 which induce the production of SEAP. After a 22 hour incubation at 37° C., 5% CO2, SEAP levels are determined with the addition of HEK-Blue™ Detection reagent (Invivogen), a cell culture medium that allows for detection of SEAP, according to manufacturer's specifications. The percent inhibition is determined as the % reduction in the HEK-Blue signal present in wells treated with agonist plus DMSO alone compared to wells treated with a known inhibitor.

Eight molecules from patent US20230139171A1 (SITA Information Networking Computing UK Limited, priority 2019, published 2023) can be followed below.

Molecules are shown by their SMILES.

With `COc1cc(-c2[nH]c3sc(C4CCC(NC(C)C)CC4)nc3c2C(C)C)cn2ncnc12` (single isomer, unassigned) [Example 78, N-isopropyl-4-(6-isopropyl-5-(8-methoxy-[1,2,4]triazolo[1,5-a]pyridin-6-yl)-4H-pyrrolo[3,2-d]thiazol-2-yl)cyclohexan-1-amine], the IC50 on human TLR7 was determined as 0.59 nM; on human TLR8, 1.64 nM; on human TLR9, 2870 nM.

With `COc1cc(-c2[nH]c3sc(C4CCC(NC(C)C)CC4)nc3c2C(C)C)cn2ncnc12` (single isomer, unassigned) [Example 79, N-isopropyl-4-(6-isopropyl-5-(8-methoxy-[1,2,4]triazolo[1,5-a]pyridin-6-yl)-4H-pyrrolo[3,2-d]thiazol-2-yl)cyclohexan-1-amine], the IC50 is 2.29 nM on human TLR7, 9.23 nM on human TLR8 and 4120 nM at human TLR9.

For `COc1cc(-c2[nH]c3sc(C4CCC(N5CCS(=O)(=O)CC5)CC4)nc3c2C(C)C)cn2ncnc12` (single isomer, unassigned) [Example 82, 4-(4-(6-isopropyl-5-(8-methoxy-[1,2,4]triazolo[1,5-a]pyridin-6-yl)-4H-pyrrolo[3,2-d]thiazol-2-yl)cyclohexyl)thiomorpholine 1,1-dioxide], the IC50 on human TLR7 was 4.69 nM; at human TLR8, 43.6 nM; against human TLR9, over 50000 nM.

With `COc1cc(-c2[nH]c3sc(C4CCC(N5CCS(=O)(=O)CC5)CC4)nc3c2C(C)C)cn2ncnc12` (single isomer, unassigned) [Example 83, 4-(4-(6-isopropyl-5-(8-methoxy-[1,2,4]triazolo[1,5-a]pyridin-6-yl)-4H-pyrrolo[3,2-d]thiazol-2-yl)cyclohexyl)thiomorpholine 1,1-dioxide], the half-maximal inhibitory concentration (IC50) is 6.33 nM on human TLR7, 238 nM on human TLR8 and over 50000 nM on human TLR9.

Turning to `COc1cc(-c2[nH]c3sc(C4CCC(NCC(C)(C)O)CC4)nc3c2C(C)C)cn2ncnc12` (single isomer, unassigned) [Example 84, 1-((4-(6-isopropyl-5-(8-methoxy-[1,2,4]triazolo[1,5-a]pyridin-6-yl)-4H-pyrrolo[3,2-d]thiazol-2-yl)cyclohexyl)amino)-2-methylpropan-2-ol], the IC50 at human TLR7 turned out to be 0.9 nM; on human TLR8 it was 0.84 nM; on human TLR9 it was 9110 nM.

In the case of `COc1cc(-c2[nH]c3sc(C4CCC(NCC(C)(C)O)CC4)nc3c2C(C)C)cn2ncnc12` (single isomer, unassigned) [Example 85, 1-((4-(6-isopropyl-5-(8-methoxy-[1,2,4]triazolo[1,5-a]pyridin-6-yl)-4H-pyrrolo[3,2-d]thiazol-2-yl)cyclohexyl)amino)-2-methylpropan-2-ol], the IC50 at human TLR7 came out at 2.66 nM; on human TLR8, 17.5 nM; at human TLR9 it was 6910 nM.

On to `COc1cc(-c2[nH]c3sc(C4CCC(NCC(C)(C)OC)CC4)nc3c2C(C)C)cn2ncnc12` (single isomer, unassigned) [Example 86, 4-(6-isopropyl-5-(8-methoxy-[1,2,4]triazolo[1,5-a]pyridin-6-yl)-4H-pyrrolo[3,2-d]thiazol-2-yl)-N-(2-methoxy-2-methylpropyl)cyclohexan-1-amine], for which the IC50 at human TLR7 worked out at 1.34 nM; on human TLR8 it was 0.7 nM; against human TLR9, 6420 nM.

In the case of `COc1cc(-c2[nH]c3sc(C4CCC(NCC(C)(C)OC)CC4)nc3c2C(C)C)cn2ncnc12` (single isomer, unassigned) [Example 87, 4-(6-isopropyl-5-(8-methoxy-[1,2,4]triazolo[1,5-a]pyridin-6-yl)-4H-pyrrolo[3,2-d]thiazol-2-yl)-N-(2-methoxy-2-methylpropyl)cyclohexan-1-amine], the IC50 worked out at 1.73 nM on human TLR7, 11.8 nM on human TLR8 and 7790 nM on human TLR9.

What is called IC50 is the concentration at which inhibition is half-maximal.
